Measured values as given in US20120277246A1, “Use of N-Phenyl-2-pyrimidineamine Derivatives Against Mast Cell-based Diseases Like Allergic Disorders” (priority 2001, published 2012).

Key:
[1] = molecular target: T1, constitutively activated mutant canine KIT (BR cells, Leucine to Proline substitution at amino acid 575) (Canis lupus familiaris, UniProt O97799, L579P); assay: KIT autophosphorylation in BR cells (anti-P-Tyr Western immunoblot); format: cell-based
T1 construct: Lysates prepared from BR or C2 cells were probed with an anti-P-Tyr antibody; endogenous in cells; host or cells: BR canine mastocytoma cell line
From the text: (§1) Antibodies: A polyclonal rabbit anti-KIT antibody (c-kit Ab-1) was used at a dilution of 1:500 (c-kit Ab-1; Oncogene, Cambridge, Mass.). An anti-phosphotyrosine antibody (PY20) was used at a dilution of 1:1000 (PY20 Transduction Laboratories; Lexington, Ky.). Peroxidase conjugated goat anti-mouse antibody was used at a dilution of 1:5000 and goat anti-rabbit antibody at a dilution of 1:10,000 (Pierce; Rockford, Ill.).
(§2) Cell lines: BR and C2 canine mastocytoma cells lines were obtained from Dr. George Caughey (University of California at San Francisco, San Francisco, Calif.). Both cell lines were maintained in DMEM supplemented with 2% bovine calf, 1 mM L-glutamine, 12.5 mM HEPES (pH 7.5), 0.25 mg/ml Histidine, 1% Penicillin-Streptomycin and 1% fungizone. The BR and C2 cells were derived from canine mast cell tumors and were originally established in long-term culture after initial passaging in immunodeficient mice (DeVinney R et al., Am J Respir Cell Mol Biol 1990; 3(5):413-420; Lazarus S C et al., Am J Physiol 1986; 251(6 Pt 1):C935-C944). The BR cell line has a point mutation (T1752C) resulting in a Leucine to Proline substitution at amino acid 575 (juxtamembrane domain). The C2 cell line has an internal tandem duplication (ITD) of the KIT juxtamembrane region.
(§3) Protein lysates: BR and C2 cells were washed×2 in PBS and then quiesced in Optimem (Gibco-BRL) at 37° C. for approximately 18 hours.
(§4) The KIT mutations in these cell lines are both located in the juxtamembrane domain and are homologous to mutations seen in human Gastrointestinal Stromal Tumors (GISTS) (Lux et al., Am. J. Pathol., Vol. 156, No. 3, pp. 791-795 (2000); Rubin et al., Cancer Res., Vol. 61, No. 22, pp. 8118-8121 (2001)). Lysates prepared from BR or C2 cells were probed with an anti-P-Tyr antibody and KIT receptor activation was assessed by measuring autophosphorylation.

[2] = system: BR canine mastocytoma cells; assay: Proliferation of BR cells, XTT-based assay; format: cell-based; conditions: for % (percent of maximal proliferation, cells only) / Averages (XTT-based assay reading): 72 hours; for Averages (XTT-based assay reading): triplicate
Protocol: as §2, with “region. The translation of this ITD results in reduplication of amino acid residues at the 3′ end of exon 11 (London et al., Exp. Hematol., Vol. 27, No. 4, pp. 689-697 (1999); Ma et al., J. Invest. Dermatol., Vol. 112, No. 2, pp. 165-170 (1999)).” for “region.”
(§5) Proliferation assays: Cells were added to 96-well plates at a density of 40,000 cells/well in normal culture media and varying concentrations of SALT I. Proliferation was measured at 48-72 hours using an XTT-based assay (Roche Molecular Biochemicals; Indianapolis, Ind.) (Heinrich et al., Blood, Vol. 96, No. 3, pp. 925-932 (2000))
(§6) Representative results from one of six independent experiments are shown.

[3] = system: constitutively activated mutant canine KIT (C2 cells, internal tandem duplication of the juxtamembrane region); assay: KIT autophosphorylation in C2 cells (anti-P-Tyr Western immunoblot); format: cell-based
From the text: as §1, §2, §3, §4

[4] = system: C2 canine mastocytoma cells; assay: Proliferation of C2 cells, XTT-based assay; format: cell-based; conditions: C2 cells (data not shown)
[5] = system: C2 canine mastocytoma cells; assay: Proliferation of C2 cells, XTT-based assay; format: cell-based; conditions: for % (percent of maximal proliferation, cells only) / Averages (XTT-based assay reading): 72 hours; for Averages (XTT-based assay reading): triplicate
Protocol: as §2, with “region. The translation of this ITD results in reduplication of amino acid residues at the 3′ end of exon 11 (London et al., Exp. Hematol., Vol. 27, No. 4, pp. 689-697 (1999); Ma et al., J. Invest. Dermatol., Vol. 112, No. 2, pp. 165-170 (1999)).” for “region.”
as §5, §6

[6] = system: cutaneous mast cell tumors; assay: Prospective case series of pet dogs with measurable cutaneous mast cell tumors; format: in vivo; conditions: 25 mg/kg PO QD x 60 days of SALT I, prospective example
Protocol: The study patients are pet dogs with measurable and histologically-confirmed mast cell tumors. Cases are limited to those with measurable lesions amenable to biopsy.
Eligibility criteria are: • Histologically-confirmed measurable cutaneous mast cell tumors • Cases will require serial biopsy with […] Keyes punch before and during therapy • Histological grade (II-intermediate or III-poorly differentiated) • Performance status 0 or I (Modified Karnofsky—Table 3) • Informed owner consent
Exclusion criteria are: • Concurrent cytotoxic chemotherapy • Prednisone and non-steroidal anti-inflammatory drugs may not be initiated within 30 days of the study; if prednisone or non-steroidal anti-inflammatory drugs have been administered for greater than 30 days they may be continued • Abnormal serum bile acid test (liver function)
Pretreatment evaluation of all cases include physical examination, complete blood count, buffy coat, serum biochemistry, urinalysis, serum bile acids (fasting and post-prandial), documentation of regional lymph node size, abdominal radiographs, and abdominal ultrasound. […]
The efficacy of COMPOUND I is assessed against measurable cutaneous mast cell tumors, using clinical endpoints. […]
Clinical endpoints include response rate of measurable tumors, objective response against measurable tumor, and time to progression of measurable tumor. All adverse side effects will be recorded.

[7] = system: cultured human mast cells generated from CD34+ cord blood cells; assay: SCF-dependent growth of cultured human mast cells (suspension culture, trypan-blue viable cell count); format: cell-based
Protocol: (§7) More than 90% of the isolated cells were CD34-positive according to the flow cytometric analysis.
(§8) Serum-deprived liquid cultures are carried out in 24-well culture plates (#3047; Becton Dickinson). Twenty thousand CD34^+ cells are cultured in each well containing 2 mL of […]-medium supplemented with 1% BSA, 300 μg/mL fully iron-saturated human transferrin (approximately 98% pure, Sigma), 16 μg/mL soybean lecithin (Sigma), 9.6 μg/mL cholesterol (Nakalai Chemicals Ltd., Japan) and 20 ng/mL of SCF, 10 ng/mL of GM-CSF, 2 U/mL of EPO, 10 ng/mL of TPO, different concentrations of a COMPOUND OF THE INVENTION, alone or in combination. In order to examine the effects of a COMPOUND OF THE INVENTION on the SCF-dependent development of mast cells, 10-week cultured cells grown with 20 ng/mL of SCF from CD34^+ cord blood cells are used as target cells. Five to ten×10^4 10-week cultured cells are incubated for 2 weeks in 24-well culture plates containing 20 ng/mL of SCF with or without various concentrations of a COMPOUND OF THE INVENTION. The plates are incubated at 37° C. in a humidified atmosphere flushed with a mixture of 5% CO2, 5% O2 and 90% N2. When the culture continued until 4 weeks, half of the culture medium is replaced every 2 weeks with fresh medium containing the factor(s). The number of viable cells is determined by a trypan-blue exclusion test using a hemocytometer.

[8] = system: cultured mast cells grown under stimulation with SCF; assay: Detection of cellular apoptosis (PI flow cytometry, DNA gel electrophoresis)
CD34+ cord blood cells = assay: Cell production by CD34+ cells under stimulation with SCF (suspension culture); format: cell-based, human; conditions: STI571B at 10^-6 M
Protocol: as §7, §8

[9] = membrane reprobed with anti-c-kit antibody

T1 sequence (O97799 28-979 L579P): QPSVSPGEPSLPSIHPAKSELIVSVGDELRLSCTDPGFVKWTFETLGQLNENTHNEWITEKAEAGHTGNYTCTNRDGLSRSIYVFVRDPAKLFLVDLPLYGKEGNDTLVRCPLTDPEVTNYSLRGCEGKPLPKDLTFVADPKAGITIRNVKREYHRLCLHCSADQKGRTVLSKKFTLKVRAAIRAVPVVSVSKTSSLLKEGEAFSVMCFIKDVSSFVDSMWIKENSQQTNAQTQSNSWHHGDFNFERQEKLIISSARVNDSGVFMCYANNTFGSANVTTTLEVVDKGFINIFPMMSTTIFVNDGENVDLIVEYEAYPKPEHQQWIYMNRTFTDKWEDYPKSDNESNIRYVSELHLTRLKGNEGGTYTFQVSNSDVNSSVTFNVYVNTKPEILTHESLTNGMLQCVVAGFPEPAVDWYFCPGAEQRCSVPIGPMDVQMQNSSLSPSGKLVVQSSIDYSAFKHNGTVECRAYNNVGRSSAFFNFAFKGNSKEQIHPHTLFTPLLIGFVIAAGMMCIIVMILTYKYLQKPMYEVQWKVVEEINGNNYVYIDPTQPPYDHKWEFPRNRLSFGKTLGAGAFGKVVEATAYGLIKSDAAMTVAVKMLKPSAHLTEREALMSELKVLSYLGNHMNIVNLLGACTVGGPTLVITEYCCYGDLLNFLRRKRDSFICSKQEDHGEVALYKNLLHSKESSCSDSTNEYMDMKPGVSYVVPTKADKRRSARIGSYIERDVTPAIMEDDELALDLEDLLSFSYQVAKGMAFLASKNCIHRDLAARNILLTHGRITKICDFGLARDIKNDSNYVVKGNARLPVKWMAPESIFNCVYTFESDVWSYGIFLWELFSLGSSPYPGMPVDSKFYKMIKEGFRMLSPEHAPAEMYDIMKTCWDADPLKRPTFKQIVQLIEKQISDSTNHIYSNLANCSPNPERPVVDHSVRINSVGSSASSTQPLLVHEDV

With `Cc1ccc(NC(=O)c2ccc(CN3CCN(C)CC3)cc2)cc1Nc1nccc(-c2cccnc2)n1` [COMPOUND I] the “inhibition of KIT autophosphorylation” value ([1]; 0.1 μM) was “Near complete inhibition”, the “inhibition of KIT autophosphorylation” value ([1]; 1.0 μM) was “complete inhibition” and the “inhibition of KIT autophosphorylation” value ([1]; 10 μM) was “complete inhibition”. For the same compound, the autophosphorylation of c-kit ([1]; 0.001-0.01 μM) was “Limited autophosphorylation”, the “expression of c-kit protein” value [1, 9] was “no change” and the “morphologic observations of inhibitor treated cells” value ([2]; BR cells (data not shown)) was “changes consistent with apoptosis”. The “% (percent of maximal proliferation, cells only)” value ([2]; BR cells, 1 μM) was 11%, the “Averages (XTT-based assay reading)” value ([2]; BR cells, 1 μM) was 0.105 and the “% (percent of maximal proliferation, cells only)” value ([2]; BR cells, 5 μM) was 9%. For the same compound, the “Averages (XTT-based assay reading)” value ([2]; BR cells, 5 μM) was 0.083, the inhibition of proliferation ([2]; BR cells, 0.001-0.01 μM, 48-72 hours) was “Partial inhibition” and the “decrease of proliferation compared to cells treated with media only” value ([2]; BR cells, 0.1-10 μM, 48-72 hours) was 90-95%. The “% (percent of maximal proliferation, cells only)” value ([2]; BR cells, .001 μM) was 84%, the “Averages (XTT-based assay reading)” value ([2]; BR cells, .001 μM) was 0.781 and the “% (percent of maximal proliferation, cells only)” value ([2]; BR cells, .01 μM) was 52%. The “Averages (XTT-based assay reading)” value ([2]; BR cells, .01 μM) was 0.479, the “% (percent of maximal proliferation, cells only)” value ([2]; BR cells, .1 μM) was 11% and the “Averages (XTT-based assay reading)” value ([2]; BR cells, .1 μM) was 0.105. For the same compound, the “inhibition of KIT autophosphorylation” value ([3]; 0.1 μM) was “Near complete inhibition”, the “inhibition of KIT autophosphorylation” value ([3]; 1.0 μM) was “complete inhibition” and the “inhibition of KIT autophosphorylation” value ([3]; 10 μM) was “complete inhibition”. The autophosphorylation of c-kit ([3]; 0.001-0.01 μM) was “Limited autophosphorylation”, the “expression of c-kit protein” value [3, 9] was “no change” and the “morphologic observations of inhibitor treated cells” value [4] was “changes consistent with apoptosis”. For the same compound, the “% (percent of maximal proliferation, cells only)” value ([5]; 1 μM) was 3%, the “Averages (XTT-based assay reading)” value ([5]; 1 μM) was 0.037 and the “% (percent of maximal proliferation, cells only)” value ([5]; 5 μM) was 3%. For the same compound, the “Averages (XTT-based assay reading)” value ([5]; 5 μM) was 0.032, the inhibition of proliferation ([5]; 0.001-0.01 μM, 48-72 hours) was “Partial inhibition” and the “decrease of proliferation compared to cells treated with media only” value ([5]; 0.1-10 μM, 48-72 hours) was 90-95%. The “% (percent of maximal proliferation, cells only)” value ([5]; .001 μM) was 86%, the “Averages (XTT-based assay reading)” value ([5]; .001 μM) was 1.065 and the “% (percent of maximal proliferation, cells only)” value ([5]; .01 μM) was 61%. For the same compound, the “Averages (XTT-based assay reading)” value ([5]; .01 μM) was 0.754, the “% (percent of maximal proliferation, cells only)” value ([5]; .1 μM) was 2% and the “Averages (XTT-based assay reading)” value ([5]; .1 μM) was 0.028. The “Objective Tumors Responses” value [6] was “observed”.
In the case of `Cc1ccc(NC(=O)c2ccc(CN3CCN(C)CC3)cc2)cc1Nc1nccc(-c2cccnc2)n1` [STI571B, N-{5-[4-(4-methyl-piperazino-methyl)-benzoylamido]-2-methyl-phenyl}-4-(3-pyridyl)-2-pyrimidine-amine monomesylate], the “number of viable cells” value ([7]; SCF plus STI571B, after day 2) is reported as “declines in a time-dependent fashion”, the “number of viable cells” value ([7]; SCF plus STI571B, day 2) is reported as “unchanged” and the total cell number ([7]; SCF plus STI571B, day 14) is reported as “negligible level”. For the same compound, the “progeny generation in culture with SCF” value ([7]; STI571B at 10^-6 M or higher, 10-week cultured mast cells, SCF) was “almost completely inhibits”, the “percentage of sub-diploid nuclei” value ([8]; SCF plus STI571B, over culture period) was “increases with the culture period” and the “DNA laddering on gel electrophoresis” value ([8]; cells exposed to SCF plus STI571B) was “DNA laddering”. For the same compound, the “programmed death of cultured mast cells” value ([8]; grown under stimulation with SCF) was “induces a programmed death” and the “cell production by CD34+ cells under stimulation with SCF” value (CD34+ cord blood cells) was “markedly depresses”.
